Calls of active or inactive are those of the source. No cut-off for these calls is given here.
Experiments:
[1] = test system: MDA-MB-231; experiment: Cytotoxicity against human TNBC MDA-MB-231 cells assessed as cell viability measured after 72 hrs; type: functional, cell-based; settings: MDA-MB-231, 72 h
[2] = test system: MDA-MB-468; experiment: Cytotoxicity against human TNBC MDA-MB-468 cells assessed as cell viability measured after 72 hrs; type: functional, cell-based; settings: MDA-MB-468, 72 h
[3] = test system: MDA-MB-468; experiment: Upregulation of cyclin B1 level in human TNBC MDA-MB-468 cells at 10 uM measured after 24 hrs by western blot analysis relative to control; type: functional, cell-based
[4] = test system: MDA-MB-468; experiment: Downregulation of cyclin B1 level in human TNBC MDA-MB-468 cells at 30 uM measured after 24 hrs by western blot analysis relative to control; type: functional, cell-based
[5] = test system: MDA-MB-468; experiment: Downregulation of se-curin level in human TNBC MDA-MB-468 cells at 10 uM measured after 24 hrs by western blot analysis relative to control; type: functional, cell-based
[6] = test system: MDA-MB-468; experiment: Downregulation of se-curin level in human TNBC MDA-MB-468 cells at 30 uM measured after 24 hrs by western blot analysis relative to control; type: functional, cell-based
[7] = test system: MDA-MB-468; experiment: Effect on BimEL expression in human TNBC MDA-MB-468 cells at 10 to 30 uM measured after 24 hrs by western blot analysis relative to control; type: functional, cell-based; settings: dose 10-30 µM
[8] = test system: MDA-MB-468; experiment: Effect on BimL expression in human TNBC MDA-MB-468 cells at 10 to 30 uM measured after 24 hrs by western blot analysis relative to control; type: functional, cell-based; settings: dose 10-30 µM
[9] = test system: MDA-MB-468; experiment: Effect on BimS expression in human TNBC MDA-MB-468 cells at 10 to 30 uM measured after 24 hrs by western blot analysis relative to control; type: functional, cell-based; settings: dose 10-30 µM
[10] = test system: MDA-MB-468; experiment: Downregulation of CDC20 level in human TNBC MDA-MB-468 cells at 10 uM measured after 24 hrs by western blot analysis relative to control; type: functional, cell-based
[11] = test system: MDA-MB-468; experiment: Downregulation of CDC20 level in human TNBC MDA-MB-468 cells at 30 uM measured after 24 hrs by western blot analysis relative to control; type: functional, cell-based
[12] = test system: MDA-MB-468; experiment: Antitumor activity against human MDA-MB-468 cells assessed as induction of cell death at 30 uM measured after 24 hour relative to control; type: functional, cell-based
[13] = species on record: Sus scrofa; experiment: Inhibition of porcine brain tubulin polymerization at 10 uM measured for 60 mins by spectrophotometric method relative to control
[14] = test system: MDA-MB-231; experiment: Cytotoxicity against human TNBC MDA-MB-231 cells assessed as cell viability at 300 uM measured after 72 hrs relative to control; type: functional
[15] = test system: MDA-MB-468; experiment: Cytotoxicity against human TNBC MDA-MB-468 cells assessed as cell viability at 300 uM measured after 72 hrs relative to control; type: functional
[16] = test system: MDA-MB-468; experiment: Upregulation of cyclin B1 level in human TNBC MDA-MB-468 cells at 80 uM measured after 24 hrs by western blot analysis relative to control; type: functional, cell-based

Cc1sc(NC(NC(=O)OCCn2c([N+](=O)[O-])cnc2C)C(F)(Cl)Cl)nc1-c1ccc(OC(F)(F)F)cc1 (stereo not drawn)
IC50 [1]: 10.8 µM | IC50 [2]: 13.2 µM | Activity [3]: Active | Activity [4]: Active | Activity [5]: Active | Activity [6]: Active | Activity [7]: Dose-Dependent Effect | Activity [8]: Dose-Dependent Effect | Activity [9]: Dose-Dependent Effect | Activity [10]: inactive | Activity [11]: Active | Activity [12]: Active

Cc1ncc([N+](=O)[O-])n1CCOC(=O)NC(Nc1nc(-c2ccc(Cl)cc2Cl)cs1)C(F)(F)Cl (stereo not drawn)
IC50 [1]: 21.4 µM | IC50 [2]: 14.4 µM

COc1ccc(-c2csc(NC(NC(=O)OCCn3c([N+](=O)[O-])cnc3C)C(F)(F)Cl)n2)cc1O (stereo not drawn)
IC50 [1]: 224 µM | IC50 [2]: 82.5 µM

Cc1ncc([N+](=O)[O-])n1CCOC(=O)NC(Nc1nc2ccc(OC(F)(F)F)cc2s1)C(F)(F)Cl (stereo not drawn)
IC50 [1]: 21.2 µM | IC50 [2]: 11.2 µM | inhibition [13]: inactive

Cc1ncc([N+](=O)[O-])n1CCOC(=O)NC(Nc1nc2ccc([N+](=O)[O-])cc2s1)C(F)(F)Cl (stereo not drawn)
IC50 [1]: 37.8 µM | IC50 [2]: 40.1 µM

Cc1ncc([N+](=O)[O-])n1CCOC(=O)NC(Nc1nc(-c2ccc(S(C)(=O)=O)cc2)cs1)C(F)(F)Cl (stereo not drawn)
IC50 [1]: > 300 µM | IC50 [2]: 103 µM

Cc1sc(NC(NC(=O)OCCN2CCOCC2)C(F)(F)Cl)nc1-c1ccc(OC(F)(F)F)cc1 (stereo not drawn)
IC50 [1]: 14.2 µM | IC50 [2]: 32.6 µM

COc1ccc(-c2csc(NC(NC(=O)OCCn3c([N+](=O)[O-])cnc3C)C(F)(F)Cl)n2)cc1 (stereo not drawn)
IC50 [1]: 63.1 µM | IC50 [2]: 49.2 µM

Cc1ncc([N+](=O)[O-])n1CCOC(=O)NC(N1CCOCC1)C(F)(F)Cl (stereo not drawn)
Activity [14]: inactive | Activity [15]: inactive

Cc1ncc([N+](=O)[O-])n1CCOC(=O)NC(Nc1nc2ccc(F)cc2s1)C(F)(F)Cl (stereo not drawn)
IC50 [1]: 80.7 µM | IC50 [2]: 73.7 µM

COC(=O)c1sc(NC(NC(=O)OCCn2c([N+](=O)[O-])cnc2C)C(F)(F)Cl)nc1-c1ccccc1 (stereo not drawn)
IC50 [1]: 42.1 µM | IC50 [2]: 23.5 µM

Cc1ncc([N+](=O)[O-])n1CCOC(=O)NC(Nc1ncccn1)C(Cl)(Cl)Cl (stereo not drawn)
IC50 [1]: 91.4 µM | IC50 [2]: 53.5 µM | Activity [16]: Active

Cc1ncc([N+](=O)[O-])n1CCOC(=O)NC(Nc1nc2ccccc2s1)C(F)(F)Cl (stereo not drawn)
viability at 300 µM ([14]; read-out: Activity): 66% | viability at 300 µM ([15]; read-out: Activity): 21%

Cc1ncc([N+](=O)[O-])n1CCOC(=O)NC(Nc1nc(-c2ccc(C#N)c(F)c2)cs1)C(F)(F)Cl (stereo not drawn)
IC50 [1]: 24.1 µM | IC50 [2]: 14.4 µM | inhibition [13]: inactive

COc1ccc(-c2csc(NC(NC(=O)OCCN3CCOCC3)C(F)(F)Cl)n2)cc1 (stereo not drawn)
IC50 [1]: 52.6 µM | IC50 [2]: 47.5 µM
